Here are results for 10 compounds from patent US10758522B2, “Small molecule analogs of the nemo binding peptide” (THE SCRIPPS RESEARCH INSTITUTE, priority 2015, dated 2020).

pIC50: −log10 of the molar value.

The test system of one data set is NF-κB target genes. As to the kind of experiment: qRT-PCR of NF-κB target genes in LPS-stimulated Raw 264.7 cells. The format is cell-based, mouse. Particulars: for transcription of NF-κB target genes (COX2, IL-6, IL-1β, TNF-α, IκBα, iNOS): Raw 264.7, 1 ug/ml LPS 2 hr, mimetics 50 μM, IKKi VII 2 μM, 8K-NBD 400 μM. On the procedure: Effect of the NBD mimetics on expression of NF-kB regulated genes in the Raw mouse macrophage cell line. Treatment of the Raw cells with the indicated drugs prior to addition of LPS reduced NF-kB-mediated gene expression as measured by RT-PCR.
To determine whether the inhibitory effect of the mimetics is TNF-α-dependent, LPS-mediated NF-κB activation via TLR4 was examined to determine a broader inhibitory effect of the novel NBD mimetics. NF-κB was stimulated in Raw 264.7 by 1 ug/ml of LPS for 2 hr and genes transcriptionally regulated by NF-κB were determined by qRT-PCR analysis. Both an IKK active site inhibitor IKKi VII (2 μM) and the 8K-NBD peptide (400 μM) were included as positive controls and the expression of COX2, IL-6, IL-1β, TNF-α, IκBα and iNOS were assessed.
Raw 264.7 cells were treated with a 50 μM solution of the SR compound for 30 minutes, and then the mRNA was harvested 2 hours after addition of 1 μg/mL LPS.
Snap frozen tissues were preserved in RNAlater RNA stabilization solution (ThermoFisher) before processed. Total RNA was extracted from cells or tissues using TRIZOL reagent (Life Technologies) and 1500 ng of messenger RNA (mRNA) was subjected to synthesize complementary DNA (cDNA) using SuperScript VILO cDNA synthesis kit. qRT-PCR was performed in a StepOnePlus Real-Time PCR system using Platinum SYBR Green qPCR SuperMix-UDG (ThermoFisher). Target gene expression was calculated using the comparative CT method (ΔΔCT) and normalized to an internal control gene Actb (β-actin). Primers used are as follows: Ptgs2 (COX-2) forward: […]; Ptgs2 (COX-2) reverse: […]; Nfkbia (IκBα) forward: […]; Nfkbia (IκBα) reverse: […]; Il1b (IL-1β) forward: […]; Il1b (IL-1β) reverse: […]; Nos2 (iNOS) forward: […]; Nos2 (iNOS) reverse: […]; Tnf (TNF) forward: […]; Tnf (TNF) reverse: […]; Il6 (IL-6) forward: […]; Il6 (IL-6) reverse: […]. Actb (β-actin) forward: […]; Actb (β-actin) reverse: […];
In general terms: In qPCR the cycle at which signal appears reflects the starting amount.

For another data set, the target named is NEMO (Homo sapiens, UniProt Q9Y6K9). Particulars: cited from earlier work; for pIC50: read-out: IC50, affinity to NEMO.
In data set [1] the target is T1, IKK complex (IKKß, IKKα and NEMO) (Homo sapiens, UniProt Q9Y6K9).
T1 construct: analyzed by Western blot for the level of co-precipitated NEMO; endogenous in cells; host or cells: 293 (HEK293) cells
As to the kind of experiment: Co-immunoprecipitation of NEMO with IKKß in 293 cells. The format is cell-based. Particulars: Zinc-5 at 4 hours, Zinc-13 at 1 hour, NBD peptide at 4 hours. From the text: FIG. 8 is a bar graph showing the inhibition of TNFα by NBDA-1 (Zinc-13). […] In addition, we have examined the ability of the compounds to disrupt the IKK complex, comprised of IKKß, IKKα and NEMO.
A non-functional, related compound Zinc-7 had no effect.

The test system of a further data set is NF-κB. As to the kind of experiment: Firefly luciferase NF-κB reporter assay in TNF-α-stimulated HEK293 cells. Particulars: 293 NF-κB luciferase reporter cells, 10 ng/ml TNF-α; compound 12909780 at 100 μM. The format is cell-based. The protocol:
This model was used to screen a subset of the drug-like ZINC 8.0 database set (˜900,000 compounds) (Irwin et al., 2005). We were able to identify 161 hits that matched at least 6 features out of eight of the pharmacophore model. […] Two compounds termed NBDA-1 (Zinc-13) and NBDA-2 (Zinc-5), successfully passed these filters (See FIG. 4) and were purchased for biological testing. The compounds were then tested for ability to inhibit TNF-alpha-mediated induction of NF-κB activity in a 293 cells stably modified with a NF-κB luciferase reporter.
The activation of NF-κB was then quantitated by measuring the level of luciferase activity. […] Also, protein extracts were prepared from the same cells and the level of phospho-IkB determined, a marker of IKK activity.
To test if the small molecules identified by the in silico screen inhibit NF-κB activation, a HEK293 cell line stably expressing a luciferase reporter driven by a synthetic, NF-κB-dependent promoter was utilized. To induce NF-κB activation, cells were treated with 10 ng/ml of TNF-α and harvested three hours post-treatment for analysis of luciferase activity. […] To determine if compound 12909780 inhibited NF-κB in a dose dependent manner, concentrations were tested at 0, 6.25, 25, 50 and 100 μM.
HEK293 cells stably transfected with luciferase reporter plasmid driven by NF-κB were seeded in 96-well plate in triplicate and pretreated with DMSO or varying small molecules at indicated concentration for 30 min, followed by the stimulation of 10 ng/ml of TNFα for 3 hr. Cell were washed with PBS once and harvested in passive lysis buffer. Luciferase assay (Promega) was performed using a luminometer according to the manufacturer's instructions.
For orientation: In a reporter assay the amount or activity of a reporter protein is the signal.

Another data set has as its system IKKβ-NEMO interaction. As to the kind of experiment: Immunoprecipitation of NEMO and IKKβ immunoblot in Raw 264.7 macrophages and HEK293 cells. The format is cell-based. Particulars: Raw 264.7 macrophages / HEK293; mimetics 100 μM, 8K-NBD 400 μM. The protocol: The NBD mimetics reduce the interaction between IKKg (NEMO) and IKKß. The indicated concentrations of the drugs were added to HEK 293 or Raw 264.7 cells and cell extracts prepared 30 minutes later. Following immunoprecipitation (IP) of NEMO, the Western was probed for IKKß.
After treatment with the mimetics or NBD peptide, NEMO was immunoprecipitated by an anti-NEMO antibody and IKKβ was immunoblotted to determine the binding of IKKβ to NEMO.
HEK293 or Raw264.7 cells were seeded at 1×10^6 cells/well in 6-well plates and treated with vehicle, small molecule or NBD peptide for indicated time. Cells were lysed in NP-40 lysis buffer supplemented with 1× protease inhibitor cocktails (sigma). Protein was immunoprecipitated by incubating 150 μg of lysate with 1 μg of anti-NEMO antibody (Santa Cruz) on a rotating shaker at 4° C. for 4 hrs, followed by incubation with 20 ul of Protein A agarose beads (ThermoFisher) for 1 hr. Beads were washed in NP40 buffer 3 times and PBS once. Protein was then denatured in SDS-sample buffer and resolved by MINI-PROTEAN TGX 4-15% SDS-PAGE. Anti-IKKβ (1:1000 CST) was used to assess binding of IKKβ to NEMO and anti-NEMO (1:1000 CST) or IgG were used to as a loading control.
For orientation: In western blotting, separated proteins are transferred to a membrane and probed.

Another data set concerns IL-6. Description: IL-6 ELISA in LPS-stimulated Raw 264.7 cells. The format is cell-based, mouse. The settings on record: Raw 264.7, 1 ug/ml LPS, supernatant at 24 hr. The protocol: To confirm the qRT-PCR result, LPS-mediated IL-6 production was analyzed in Raw 264.7 cells by ELISA. […] Moreover, SR11481 appears to work more efficiently at a lower concentration around 25 μM. Taken together, four lead compounds were identified through seven rounds of optimization and modification.
Enzyme-Linked Immunosorbent Assay (ELISA). Raw264.7 cells were grown in a 96-well plate and pretreated with vehicle, IKKi VII (2 uM) and small molecules (at indicated concentration) for 1 hr, followed by the stimulation with 1 ug/ml of LPS. Supernatant was collected 24 hr later for ELISA analysis. IL-6 concentration was measured using a mouse IL-6 ELISA kit (BD) according to the manufacturer's instructions.

Data set [2] in a line: Pharmacokinetics study after ip injection. The format is in vivo. Particulars: mice, 10 mg/kg ip, 2 hr. On the procedure:
To determine the stability of the NBD mimetics in vivo, the pharmacokinetics of the compounds was determined in serum following ip injection.
The pharmacokinetic profiles of the NBD mimetics were determined in male C57BL/6J mice (n=3). The drugs were formulated in 10:10:80 of DMSO:Tween 80:water and were dosed by intraperitoneal injection at a final dose of 10 mg/kg. Blood, brain, muscle, spleen, and liver were collected 2 hr post-treatment and were analyzed by mass spectrometry by following the protocol described in ref. 215 (42).

The subject of data set [3] is embryonic fibroblasts from Ercc1−/− mice. Description: Senescence rescue assay in ERCC1-deficient murine embryonic fibroblasts (SA-ß-gal). The format is cell-based, mouse. Particulars: oxidative stress conditions (20% O2). The text has this: In an attempt to identify new drugs able to improve healthspan, we have developed an assay for screening for drugs able to rescue primary “aged” fibroblasts from senescence. This assay uses murine embryonic fibroblasts (MEFs) from mice with accelerated aging due to a deficiency in an important DNA repair pathway, ERCC1-XPF. These MEFs undergo rapid senescence in culture, especially when grown under the high oxygen conditions that confers oxidative stress (FIGS. 18 and 19).

Chain of NEMO (Q9Y6K9 whole entry, species assumed): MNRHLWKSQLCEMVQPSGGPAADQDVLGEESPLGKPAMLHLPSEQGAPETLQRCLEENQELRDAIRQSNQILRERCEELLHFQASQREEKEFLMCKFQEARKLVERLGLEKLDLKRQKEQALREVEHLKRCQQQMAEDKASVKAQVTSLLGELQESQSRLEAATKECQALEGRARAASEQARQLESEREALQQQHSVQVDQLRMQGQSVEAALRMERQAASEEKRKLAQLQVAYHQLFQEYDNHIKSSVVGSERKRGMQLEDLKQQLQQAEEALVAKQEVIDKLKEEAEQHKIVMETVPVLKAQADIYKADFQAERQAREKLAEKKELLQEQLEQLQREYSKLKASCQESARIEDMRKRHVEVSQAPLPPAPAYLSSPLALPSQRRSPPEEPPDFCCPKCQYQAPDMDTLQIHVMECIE
T1 sequence (Q9Y6K9 whole entry, one chain of several): as the sequence (Q9Y6K9 whole entry, species assumed) above

For the compound `O=C(c1ccc(Nc2nccc(-c3cc4ccccc4s3)n2)cc1)N1CCC(N2CCCC2)CC1` [IKKi VII, reference compound], the “transcription of NF-κB target genes (COX2, IL-6, IL-1β, TNF-α, IκBα, iNOS)” value (from here on “transcription of NF-κB target genes”) in the data set on NF-κB target genes is given as “able to inhibit most NF-κB target gene expression”. For the same compound, the iNOS expression entry in the data set with NF-κB target genes (Raw 264.7, LPS) is on record as “failed to downregulate iNOS expression”.

Take “IKKβ-derived peptide (701-746): longer IKKβ-derived peptide (701-746) containing all residues and domains (PAKKSEELVAEAHNLCTLLENAIQDTVREQDQSFTALDWSWLQTEE; UniProt O14920 701-746, looked up, fragment)”: in the data set with NEMO, the negative-log IC50 (pIC50) (as a rule, the negative decadic logarithm of the IC50, by convention in mol/L) was approximately 8.00. With `O=C(COC(=O)c1c2ccccc2cc2ccccc12)Nc1ncc(C(F)(F)F)cc1Cl` [ZINC7, anthracene-9-carboxylic-acid-[2-[[3-chloro-5-(trifluoromethyl)-2-pyridyl]amino]-2-keto-ethyl]-ester], the “level of NEMO co-immunoprecipitated with IKKß” value in data set [1] is reported as “had no effect”. For `O=C(COC(=O)Cc1ccccc1)Nc1ncc(Cl)cc1Cl` [ZINC9, 2-phenylacetic-acid-[2-[(3,5-dichloro-2-pyridyl)amino]-2-keto-ethyl]-ester], the “inhibition of TNF-α-induced NF-κB activation (luciferase reporter), in words” value in the data set on NF-κB is on record as “lowered NF-κB activity robustly”. Regarding `O=C(COCCc1cc(F)cc(F)c1)Nc1ccc(Cl)cn1` [SR12454, N-(5-chloropyridin-2-yl)-2-(3,5-difluorophenethoxy)acetamide], the “disruption of IKKβ-NEMO interaction (NEMO IP, IKKβ blot)” value in the data set on IKKβ-NEMO interaction was “disruption of the association between NEMO and IKK-β”. Further, in the data set on NF-κB target genes, the “transcription of NF-κB target genes” value is “significantly downregulate the transcription of all NF-κB target genes tested”. In the data set with IL-6, the “LPS-mediated mIL-6 production (ELISA)” value is given as “decreasing by half at 25 μM”. Also, the “stability in serum after ip injection” value in data set [2] is “moderate stability”. For the compound `CC(=O)Oc1ccccc1C(=O)O` [aspirin], in data set [3], the “senescence (SA-ß-gal staining) of ERCC1-deficient MEFs” value is “most effective for rescuing senescence”.

Regarding `O=C(COC(=O)Cc1cc(F)cc(F)c1)Nc1ccc(Cl)cn1` [SR11481, 2-((5-chloropyridin-2-yl)amino)-2-oxoethyl 2-(3,5-difluorophenyl)acetate], in the data set with IKKβ-NEMO interaction, the “disruption of IKKβ-NEMO interaction (NEMO IP, IKKβ blot)” value is “disruption of the association between NEMO and IKK-β”. In addition, the “transcription of NF-κB target genes” value with NF-κB target genes was “failed to suppress all NF-κB target genes”. In the data set with IL-6, the “LPS-mediated mIL-6 production (ELISA)” value was “reduction in the accumulation of IL-6 protein at 24 hr”. In data set [2], the “stability in serum after ip injection” value is “extremely unstable with undetectable levels at 2 hr”. For the compound “mutated 11-mer NBD peptide (735-745): 11-mer NBD peptide with substitutions of arginine for W741 and W739 (TALDRSRLQTE; NEMO binding domain; UniProt O14920 735-745, looked up, variant W739R W741R)”, the “binding to NEMO” value in the data set with NEMO (W741 and W739 substituted by arginine) is reported as “unable to bind to NEMO”. Take `CC(Cc1ccc(O)c(O)c1)C(C)Cc1ccc(O)c(O)c1` (centres unmarked) [NDGA]: the “senescence (SA-ß-gal staining) of ERCC1-deficient MEFs” value in data set [3] was “most effective for rescuing senescence”. For “traditional 11 amino acid NEMO binding domain peptide of IKKβ, amino acids 735-745, TALDWSWLQTE [11-mer NBD peptide]”, the pIC50 with NEMO is approximately 4.00.
